# Experimental data published in publication PMC11372076, “A dual inhibitor of PIP5K1C and PIKfyve prevents SARS-CoV-2 entry into cells” (Experimental & Molecular Medicine, 2024).
# pKd: −log10 of the molar value.
# Tests used:
# PIKFYVE = PIKFYVE (Homo sapiens, UniProt Q9Y2I7); assay: Eurofins kinase assay service (Kd); assay type: binding
# Description: Supplementary Fig. 2 UNI418 inhibits PIP5K1B/C and PIKfyve. a Inhibition graph of PIP5K1 kinases at the 10 point titration with UNI418. IC 50 value of PIP5K1 kinases was analyzed by Thermo Fisher Scientific’s SelectScreen kinase profiling service. b Kd (nM) values of PIP5K1C and PIKfyve inhibition were determined using the Eurofins kinase assay service.
# (1 picture or pasted object on this page, not shown here)
# PIK3C3 (hVPS34) = assay: SelectScreen Kinase Profiling Service (PIPK profiling); assay type: biochemical; details: 1 μM UNI418; [ATP] 100 μM
# Source text: (§1) UNI418 has a core structure consisting of 4-quinazolinamine (Fig. 1a, green), which is often found in kinase inhibitors. […] The phosphoinositide (PI) system is a crucial regulatory mechanism in membrane trafficking and is tightly regulated through phosphorylation cascades by multiple phosphatidylinositol phosphate kinases (PIPKs)[30]. We hypothesized that UNI418 may inhibit PIPK(s) and performed PIPK profiling analysis. […] To test whether UNI418 interacts with PIP5K1C and PIKfyve, we performed a CETSA, which determines the characteristics of protein stabilization upon ligand binding to the target protein[31]. UNI418- or DMSO-treated cell lysates were incubated at different temperatures, and the presence of the target protein in the soluble fraction was analyzed by Western blotting (Fig. 1c).
# (§2) Fig. 1 UNI418 specifically targets PIP5K1 and PIKfyve. a Chemical structure of UNI418. The 4-quinazolinamine core is highlighted in green. b Table of the kinase profiling analysis. Inhibition of several kinases was determined at a 1 μM concentration of UNI418 and analyzed by the SelectScreen Kinase Profiling Service (Thermo Fisher Scientific). c Cellular thermal shift assay. Ectopically expressed GFP-PIP5K1C and GFP-PIKfyve were heated to the indicated temperatures with/without UNI418, and the presence of protein in the soluble fraction was analyzed by Western blot analysis. TEXT PRINTED IN THE PICTURE: (b) UNI418: % Inhibition (mean): 11 ([ATP] Tested (μM): 10; Kinase Tested: PI4K2A (PI4K2 alpha)); % Inhibition (mean): 4 ([ATP] Tested (μM): 10; Kinase Tested: PI4K2B (PI4K2 beta)); % Inhibition (mean): -6 ([ATP] Tested (μM): 10; Kinase Tested: PI4KA (PI4K alpha)); % Inhibition (mean): 48 ([ATP] Tested (μM): Km app; Kinase Tested: PI4KB (PI4K beta)); % Inhibition (mean): 20 ([ATP] Tested (μM): 10; Kinase Tested: PIK3C2B (PI3K-C2 beta)); % Inhibition (mean): 22 ([ATP] Tested (μM): 10; Kinase Tested: PIK3C2G (PI3K-C2 gamma)); % Inhibition (mean): 4 ([ATP] Tested (μM): 100; Kinase Tested: PIK3C3 (hVPS34)); % Inhibition (mean): 8 ([ATP] Tested (μM): 10; Kinase Tested: PIK3CA/PIK3R3 (p110 alpha/p55 gamma)); % Inhibition (mean): 7 ([ATP] Tested (μM): 10; Kinase Tested: PIK3CB/PIK3R2 (p110 beta/p85 beta)); % Inhibition (mean): 9 ([ATP] Tested (μM): 10; Kinase Tested: PIP4K2A); % Inhibition (mean): 67 ([ATP] Tested (μM): 10; Kinase Tested: PIP5K1A); % Inhibition (mean): 93 ([ATP] Tested (μM): 10; Kinase Tested: PIP5K1B); % Inhibition (mean): 93 ([ATP] Tested (μM): 10; Kinase Tested: PIP5K1C); % Inhibition (mean): 100 ([ATP] Tested (μM): 100; Kinase Tested: PIKFYVE) | (b) Apilimod: % Inhibition (mean): 100 ([ATP] Tested (μM): 100; Kinase Tested: PIKFYVE) […]
# PI4K2A (PI4K2 alpha) = assay: as above; assay type: biochemical; details: 1 μM UNI418; [ATP] 10 μM
# Source text: as §1, §2
# PI4K2B (PI4K2 beta) = assay: as above; assay type: biochemical; details: 1 μM UNI418; [ATP] 10 μM
# Source text: as §1, §2
# PIK3C2B (PI3K-C2 beta) = assay: as above; assay type: biochemical; details: 1 μM UNI418; [ATP] 10 μM
# Source text: as §1, §2
# PIK3C2G (PI3K-C2 gamma) = assay: as above; assay type: biochemical; details: 1 μM UNI418; [ATP] 10 μM
# Source text: as §1, §2
# PI4KA (PI4K alpha) = assay: as above; assay type: biochemical; details: 1 μM UNI418; [ATP] 10 μM
# Source text: as §1, §2
# [1] = test system: PIK3CB/PIK3R2 (p110 beta/p85 beta); assay: as above; assay type: biochemical; details: 1 μM UNI418; [ATP] 10 μM
# Source text: as §1, §2
# PI4KB (PI4K beta) = assay: as above; assay type: biochemical; details: 1 μM UNI418; [ATP] Km app
# Source text: as §1, §2
# PIP4K2A = assay: as above; assay type: biochemical; details: 1 μM UNI418; [ATP] 10 μM
# Source text: as §1, §2
# [2] = test system: PIK3CA/PIK3R3 (p110 alpha/p55 gamma); assay: as above; assay type: biochemical; details: 1 μM UNI418; [ATP] 10 μM
# Source text: as §1, §2
# RPE1 cells = assay: Vacuolization analysis; assay type: cell-based
# Description: CUGAUCAAGAU G A -3 and PIKfyve#2 siRNA 5'-
# […] -3'. siRNA oligonucleotides were purchased from Genolution, Sigma- Aldrich and Integrated DNA Technologies.
# These siRNAs were transfected into the cell using lipofectamine RNAiMAX (Invitrogen, 13778150) following manufacturer ’s protocol.
# RPE1 cells were treated with UNI418 at indicated concentration for over-night.
# After that, the image was taken by EVOS M5000 (Thermo Fisher Scientific).
# RPE1 cells were treated with UNI418 at the different concentration during the time. Live cell images were taken by Lionheart LX Automated Microscope and analyzed in Gen5 (Agilent).
# RPE1 cells were treated with indicated doses of UNI418 overnight. To analyze PIP2 level by flow cytometry, trypsinized cells were fixed with 4% paraformaldehyde for 10 min at room temperature. The fixed cells were permeabilized with 0.2% PBS-T (Triton X-100) for 5min and blocked with 5% Bovine Serum Albumin (BSA), and stained with the primary antibody for 4h at 4°C. Cells were washed three times with 1% BSA-PBS and incubated with the fluorescence- conjugated secondary antibody Alexa Fluor® 488 AffiniPure Goat Anti-Mouse IgG (H+L) (Jackson ImmunoResearch,111- 545- 003) for 1h at room temperature analyzed by BD Accuri C6 Plus flow cytometer (BD Biosciences). […]
# Chain of PIKFYVE (Q9Y2I7 whole entry): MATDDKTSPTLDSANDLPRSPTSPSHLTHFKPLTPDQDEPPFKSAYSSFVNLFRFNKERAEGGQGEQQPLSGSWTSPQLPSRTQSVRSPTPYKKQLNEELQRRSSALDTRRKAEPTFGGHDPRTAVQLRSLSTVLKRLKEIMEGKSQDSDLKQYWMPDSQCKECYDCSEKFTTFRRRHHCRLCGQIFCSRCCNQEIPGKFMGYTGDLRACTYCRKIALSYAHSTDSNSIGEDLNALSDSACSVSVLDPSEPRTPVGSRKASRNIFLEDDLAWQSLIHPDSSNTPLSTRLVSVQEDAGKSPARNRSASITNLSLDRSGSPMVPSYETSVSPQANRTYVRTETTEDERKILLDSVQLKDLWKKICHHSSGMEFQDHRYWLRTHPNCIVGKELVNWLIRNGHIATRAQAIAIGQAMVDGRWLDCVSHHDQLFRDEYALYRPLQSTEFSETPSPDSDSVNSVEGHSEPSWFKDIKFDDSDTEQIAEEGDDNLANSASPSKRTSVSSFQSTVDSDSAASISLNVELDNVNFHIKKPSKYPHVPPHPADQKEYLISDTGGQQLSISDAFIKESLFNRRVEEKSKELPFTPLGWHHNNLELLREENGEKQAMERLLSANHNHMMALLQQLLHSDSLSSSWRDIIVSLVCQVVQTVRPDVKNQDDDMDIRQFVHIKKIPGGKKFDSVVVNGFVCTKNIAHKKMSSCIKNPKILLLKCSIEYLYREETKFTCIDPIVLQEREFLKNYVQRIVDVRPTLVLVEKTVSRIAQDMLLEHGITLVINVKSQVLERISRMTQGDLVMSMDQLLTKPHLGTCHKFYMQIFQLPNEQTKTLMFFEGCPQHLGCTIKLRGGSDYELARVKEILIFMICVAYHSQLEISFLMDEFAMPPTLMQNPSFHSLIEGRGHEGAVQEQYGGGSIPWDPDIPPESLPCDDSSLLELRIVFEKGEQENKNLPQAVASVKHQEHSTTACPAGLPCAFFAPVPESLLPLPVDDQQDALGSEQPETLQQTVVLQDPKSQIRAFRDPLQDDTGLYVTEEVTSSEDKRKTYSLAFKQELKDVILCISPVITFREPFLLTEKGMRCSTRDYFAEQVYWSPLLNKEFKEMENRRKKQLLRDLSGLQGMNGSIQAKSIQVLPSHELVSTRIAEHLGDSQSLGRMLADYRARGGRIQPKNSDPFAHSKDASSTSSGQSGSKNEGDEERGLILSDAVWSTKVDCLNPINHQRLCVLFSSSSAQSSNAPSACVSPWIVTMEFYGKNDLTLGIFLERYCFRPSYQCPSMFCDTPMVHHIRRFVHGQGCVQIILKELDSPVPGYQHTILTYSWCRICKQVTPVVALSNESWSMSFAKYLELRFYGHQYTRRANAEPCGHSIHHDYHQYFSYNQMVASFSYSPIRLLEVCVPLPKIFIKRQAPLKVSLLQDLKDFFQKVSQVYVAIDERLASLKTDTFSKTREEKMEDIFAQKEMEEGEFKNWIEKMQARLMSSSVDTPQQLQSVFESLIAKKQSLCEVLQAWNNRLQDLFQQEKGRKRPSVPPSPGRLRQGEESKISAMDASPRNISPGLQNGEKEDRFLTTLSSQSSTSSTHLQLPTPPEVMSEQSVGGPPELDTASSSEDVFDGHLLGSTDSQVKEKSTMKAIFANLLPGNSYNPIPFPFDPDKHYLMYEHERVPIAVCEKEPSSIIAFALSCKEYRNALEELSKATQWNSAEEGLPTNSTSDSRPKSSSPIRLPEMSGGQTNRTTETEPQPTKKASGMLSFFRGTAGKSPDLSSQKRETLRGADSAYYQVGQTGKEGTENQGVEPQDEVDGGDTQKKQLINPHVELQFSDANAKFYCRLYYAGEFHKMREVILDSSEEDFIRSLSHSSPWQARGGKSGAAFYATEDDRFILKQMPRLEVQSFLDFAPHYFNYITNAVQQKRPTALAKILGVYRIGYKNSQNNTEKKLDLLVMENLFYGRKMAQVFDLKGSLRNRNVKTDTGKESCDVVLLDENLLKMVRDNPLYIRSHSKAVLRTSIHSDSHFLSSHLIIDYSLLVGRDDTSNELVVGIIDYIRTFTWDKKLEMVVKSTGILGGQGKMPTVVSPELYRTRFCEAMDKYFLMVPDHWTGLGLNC
structure (smiles),measurement,setting,value
"c1ccc(-c2cc(Nc3nc(-c4ccncc4)nc4ccccc34)n[nH]2)cc1 [UNI418, N -(5-phenyl-1 H -pyrazol-3-yl)-2-(4-pyridinyl)-4-quinazolinamine]",pKd,PIKFYVE,9.11
same,% Inhibition (mean),PIK3C3 (hVPS34),4%
same,% Inhibition (mean),PI4K2A (PI4K2 alpha),11%
same,% Inhibition (mean),PI4K2B (PI4K2 beta),4%
same,% Inhibition (mean),PIK3C2B (PI3K-C2 beta),20%
same,% Inhibition (mean),PIK3C2G (PI3K-C2 gamma),22%
same,% Inhibition (mean),PI4KA (PI4K alpha),-6%
same,% Inhibition (mean),[1],7%
same,% Inhibition (mean),PI4KB (PI4K beta),48%
same,% Inhibition (mean),PIP4K2A,9%
same,% Inhibition (mean),[2],8%
same,vacuolization,RPE1 cells,induced vacuolization
